Here are results for 4 compounds from PMC3728097 (PLoS ONE, 2013).

“Also recorded” adds a separate entry of the source.

The target of assay [1] is α7 nAChRs in the monkey brain (Macaca mulatta, UniProt Q866A2). The format is in vivo. Conditions: monkey SPECT, pretreatment SSR180711 5.0 mg/kg i.v. The method, then:
Four monkeys (male, 7 year olds, 8 kg) were selected for SPECT imaging. Immediately after HPLC column purification, 50 µg (74 MBq) of the ^131I-CHIBA-1001 in 2 mL of normal saline were injected into the monkeys via intravenous administration after administration of saline (control) or SSR180711 (5.0 mg/kg, i.v.). […] At 0.5, 1.5, and 2 h after injection, imaging was performed in the Department of Nuclear Medicine, Peking University First Hospital, using SPECT (SPR SPECT; GE Healthcare, Inc.) equipped with a high-energy general purpose (HEGP) collimator. Static images (200,000 counts), obtained with a zoom factor of 2.0, were digitally stored in a 64 × 64 matrix.

Assay [2] deals with T1, α7 nAChRs in the rat brain (Rattus norvegicus, UniProt Q05941).
T1 construct: aliquots of a membrane suspension (200 µl), ^125I-CHIBA-1001 and the indicated concentrations of test drug; from tissue; host or cells: rat brain membranes (Sprague Dawley)
The assay is described as follows: In vitro saturation binding assay of ^125I-CHIBA-1001 in rat brain membranes. The conditions noted are these: 4°C, n = 5, mean ± S.E.M.
Method: Male SD (Sprague Dawley) rats (8–10 week olds, 180–200 g) were used for the experiments. After sacrificing the rats by decapitation, the brains were rapidly removed from the skulls.
The tissues of each brain region were homogenized in 15 volumes of 50 mM Tris–HCl buffer (120 mM NaCl, 2 mM KCl, 1 mM CaCl2, 1 mM MgCl 2, pH 7.4 at 4°C) using a Polytron homogenizer at setting No. 5 for 30s on ice. The membranes were centrifuged in 50 ml polypropylene tube at 48,000 g for 20 min at 4°C. The supernatant was discarded and the pellet re-suspended, homogenized and centrifuged as above. The membrane pellet was washed and re-suspended in ice-cold buffer and was then centrifuged two more times. The final pellet was re-suspended in 10 volumes of the same buffer.
Assays of the binding of ^125I-CHIBA-1001 to α7 nAChRs in the rat brain were performed according to the method published previously [21], [22]. The reaction mixtures were consisted of aliquots of a membrane suspension (200 µl), ^125I-CHIBA-1001 and the indicated concentrations of test drug in a final volume of 0.5 ml in duplicate. Non-specific binding was estimated in the presence of 30 µM SSR180711. Binding reaction was conducted for 150 min at 4°C for the equilibrium saturation and inhibition studies.

For a further assay, the target named is α7 nAChRs. Conditions: cited from earlier work.
Where [3] appears, read: blocked cerebellum as nonspecific binding.

Sequence of α7 nAChRs in the monkey brain (Q866A2 23-502): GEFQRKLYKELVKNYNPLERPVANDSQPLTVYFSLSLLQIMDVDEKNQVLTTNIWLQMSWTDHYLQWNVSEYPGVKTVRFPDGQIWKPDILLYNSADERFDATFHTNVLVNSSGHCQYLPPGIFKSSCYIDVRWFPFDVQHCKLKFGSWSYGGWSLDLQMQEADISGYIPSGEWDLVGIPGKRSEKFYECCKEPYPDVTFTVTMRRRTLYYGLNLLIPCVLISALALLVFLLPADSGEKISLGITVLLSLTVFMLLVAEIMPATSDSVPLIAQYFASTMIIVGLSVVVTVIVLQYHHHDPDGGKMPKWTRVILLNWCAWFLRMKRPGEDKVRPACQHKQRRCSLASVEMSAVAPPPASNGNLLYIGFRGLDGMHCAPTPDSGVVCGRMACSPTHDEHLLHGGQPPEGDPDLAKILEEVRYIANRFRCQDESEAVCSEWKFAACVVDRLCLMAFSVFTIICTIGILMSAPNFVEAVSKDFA
T1 sequence (Q05941 23-502): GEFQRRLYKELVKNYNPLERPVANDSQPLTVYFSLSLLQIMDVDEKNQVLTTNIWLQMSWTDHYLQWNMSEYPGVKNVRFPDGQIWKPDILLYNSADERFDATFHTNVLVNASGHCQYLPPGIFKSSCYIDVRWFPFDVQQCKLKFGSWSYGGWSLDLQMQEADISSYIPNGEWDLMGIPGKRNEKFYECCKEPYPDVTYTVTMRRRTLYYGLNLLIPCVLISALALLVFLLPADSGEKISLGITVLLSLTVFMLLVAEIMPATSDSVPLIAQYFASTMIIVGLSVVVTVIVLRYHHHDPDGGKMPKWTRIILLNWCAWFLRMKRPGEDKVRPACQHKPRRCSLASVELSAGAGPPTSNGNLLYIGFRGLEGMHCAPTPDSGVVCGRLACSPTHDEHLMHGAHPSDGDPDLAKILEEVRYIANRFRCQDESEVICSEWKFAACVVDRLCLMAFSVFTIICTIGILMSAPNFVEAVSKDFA

As to `O=C(Oc1ccc(Br)cc1)N1CCN2CCC1CC2` [SSR180711], in assay [1], the “blockade of ^131I-CHIBA-1001 uptake in the cerebellum” value is listed as “minimal” and the “effect of pretreatment on uptake of ^131I-CHIBA-1001 radioactivity in the brain” value is “blocked the radioactive uptake in the brain successfully; also recorded: decreased”. For the same compound, in assay [1] (setting [3]), the “decrease of specific binding of ^131I-CHIBA-1001 in the frontal cortex” value is on record as 38.5±2.1% and the “decrease of specific binding of ^131I-CHIBA-1001 in the thalamus” value came out at 35.7±2.8%.

Take `O=C(Oc1ccc(I)cc1)N1CCN2CCC1CC2` [^125I-CHIBA-1001]: the Kd in assay [2] (read-out: apparent Kd) is 0.0819 ± 0.00795 µM.

In assay [2], `O=C(Oc1ccc([125I])cc1)N1CCN2CCC1CC2` [^125I-CHIBA-1001] came in with a B max of 63.97±17.45 fmol/mg protein.

Regarding [^125I]methyllycaconitine [^125I-MLA], the Kd at α7 nAChRs is 0.0018 µM.
